# Data as given in patent US10668033B2, “Modulators of the prostacyclin (PGI2) receptor useful for the treatment of disorders related thereto” (Arena Pharmaceuticals, Inc., priority 2008, dated 2020).
# Experiments:
# [1] = Plasma profile in rats after 10 mg/kg oral dose of Compound 22 sodium salt; assay type: in vivo; details: rat, after a 10 mg/kg oral dose of Compound 22 (sodium salt, FIG. 25), male rats
# [2] = Excipient compatibility (stability) study; assay type: physicochemical; details: four weeks in a glass vial at 50° C.
# Experimental: Compound 22 was tested for stability in three of the excipients.
# [3] = tested on: MCT-induced pulmonary arterial hypertension; assay: Rat monocrotaline (MCT) model of pulmonary arterial hypertension; assay type: in vivo; details: 30 mg/kg oral gavage twice a day for 21 days; 60 mg/kg MCT s.c.; male Wistar rats
# Experimental: Male Wistar rats (100-150 g at start of study) (Charles River Laboratories, Wilmington, Mass.) were housed two per cage and maintained in a humidity—(40-60%) and temperature—(68-72° F.) controlled facility on a 12 hr:12 hr light/dark cycle (lights on at 6:30 am) with free access to food (Harlan Teklad, Orange Calif., Rodent Diet 8604) and water. Rats were allowed one week of habituation to the animal facility before testing.
# The rat monocrotaline (MCT) model is a standard and well-accepted model of pulmonary arterial hypertension. MCT induces acute pulmonary endothelial damage associated with pulmonary vascular inflammation. […]
# Rats were randomly given a single subcutaneous injection of either 60 mg/kg MCT (Sigma, St. Louis, Mo.) or 0.9% saline (sham) and assigned to receive oral administration of 20% hydroxypropyl beta-cyclodextrin (vehicle) or test compound (30 mg/kg; FIGS. 7 and 8). […] Heart chamber weights were measured on Day 22. […] The ratio of right ventricular (RV) weight to left ventricle plus septum (LV+S) weight (this ratio is indicated as “RV/(LV+S)” in FIGS. 7 and 8) was calculated as an index of the hypertrophic response to the induced pulmonary arterial hypertension and, as such, as an index of a test compound's therapeutic efficacy for pulmonary arterial hypertension.
# [4] = Pharmacokinetics in rats after oral administration of Compound 99; assay type: in vivo, Sprague-Dawley rat; details: plasma analyte after 1.25 mg/kg oral dose of Compound 99, male rats
# Experimental: Blood samples were obtained from 0.100 to 21.0 h post-dose for plasma drug concentration measurements. […] Pharmacokinetic parameters were estimated using non-compartmental pharmacokinetic analysis.
# [5] = Dynamic vapor sorption (DVS) hygroscopicity; assay type: physicochemical; details: at 90% relative humidity; listed as Form 1 of the sodium salt of Compound 22
# Experimental: Hygroscopicity was measured using a dynamic moisture-sorption analyzer, VTI Corporation, SGA-100. The sample was placed as-is in a tared sample holder on the VTI balance. A drying step was run at 40° C. and ˜1% RH for 60 to 120 min. The isotherm conditions are 25° C. with steps of 20% RH from 10% RH up to 90% RH and back to 10% RH. The weight was checked every 2 min. Percent weight change of <0.01% in 20 min or 2 h, whichever occurs first, is required before continuing to the next step.
# [6] = Excipient solubility study
# Experimental: The solubility of 2-(((1r,4r)-4-(((4-chlorophenyl)(phenyl)carbamoyloxy)methyl)cyclohexyl)methoxy)acetic acid (Compound 22) and sodium 2-(((1r,4r)-4-(((4-chlorophenyl)(phenyl)carbamoyloxy)methyl)cyclohexyl)methoxy)acetate (Compound 22 sodium salt) in various excipients was measured.
structure (smiles),measurement,setting,value
"O=C(O)COC[C@H]1CC[C@H](COC(=O)N(c2ccccc2)c2ccc(Cl)cc2)CC1 [Compound 22, 2-(((1r,4r)-4-(((4-chlorophenyl)(phenyl)carbamoyloxy)methyl)cyclohexyl)methoxy)acetic acid]",Tmax,[1],1.5 h
same,stability in solution,[2]; Cremophor RH 40,no observable degradation or API assay loss
same,stability in solution,[2]; Imwitor 742,no observable degradation or API assay loss
same,stability in solution,[2]; TPGS 1000,no observable degradation or API assay loss
same,"hypertrophic response, RV/(LV+S)",[3],inhibited the hypertrophic response
same,AUC(0-t),"[4]; Sprague-Dawley, rat",935 ng·h/mL
same,Cmax,"[4]; Sprague-Dawley, rat",214 ng/mL
same,half-life,"[4]; Sprague-Dawley, rat, read-out: terminal phase half-life (T1/2) (converted)",3.51 h
same,time of Cmax,[4],2.67 h
"O=C([O-])COC[C@H]1CC[C@H](COC(=O)N(c2ccccc2)c2ccc(Cl)cc2)CC1.[Na+] [Sodium Salt of Compound 22, sodium 2-(((1r,4r)-4-(((4-chlorophenyl)(phenyl)carbamoyloxy)methyl)cyclohexyl)methoxy)acetate]",DVS absorption,[5],less than 0.25%
same,Solubility,[6]; Corn Oil,<100 µg/mL
same,Solubility,[6]; Cremophor RH 40,7820 µg/mL
same,Solubility,[6]; Gelucire 44/14,1610 µg/mL
same,Solubility,[6]; Gelucire 50/13,<10000 µg/mL
same,Solubility,[6]; Imwitor 742,16200 µg/mL
same,Solubility,[6]; Labrasol,12980 µg/mL
same,Solubility,[6]; Lauroglycol 90,260 µg/mL
same,Solubility,[6]; PEG400,4850 µg/mL
same,Solubility,[6]; PEG6000,<10000 µg/mL
same,Solubility,[6]; Safflower oil,<100 µg/mL
same,Solubility,[6]; TPGS 1000,2550 µg/mL
